Laboratory results reported in US8592435B2, “Nitrogen-containing six-membered aromatic ring derivatives and pharmaceutical products containing the same” (Daiichi Sankyo Company, Limited, priority 2007, dated 2013).

Columns and labels:
hippocampal neurons = test: Test Example 1: ability to promote axonal outgrowth; assay type: cell-based, Wistar rats; settings: Hippocampal neuron, 216 h; Compound Conc. = 3 μM; % of control; rat hippocampal neurons, day 9; read-out: Promotion of axonal outgrowth (%)
Procedure: According to the method of M. P. Mattson [M. P. Mattson, Brain Res. Rev., 13, 179, (1988)], the hippocampal region was isolated from 18-day embryos of female Wistar rats and the neurons were dispersed using the papain dissociation system. Hippocampal neuron were suspended in 5% Nu-serum+B27 supplement+Neurobasal medium at 5×10^4 cells/well/2 mL. 2 mL of the cell suspension were inoculated on a poly-D-lysine-coated 36φ dish and the neuron were incubated at 37° C. in a 5% CO2 incubator.
On day 3 of the incubation period, 1 mL of the culture medium was replaced with 1 mL of 5% Nu-serum+B27 supplement+Neurobasal medium containing 2 mM AraC. Each test compound was added to the culture on day 3 and day 7 of the incubation period. On day 9, cells were fixed in a 4% paraformaldehyde solution. The nerve axons of the fixed cells were stained with the Rabbit anti-growth-associated protein-43 polyclonal antibody and the stained cells were quantified using Kurabo neuron outgrowth-quantication software.
The ability (%) of each test compound to promote axonal outgrowth was calculated from the following equation: The ability to promote axonal outgrowth (%)=[(measurement with a compound of interest)/(measurement of control)]×100
Example Compounds shown in Table 25 were used as test compounds and were each added at concentrations of 3 μM and 0.3 μM.
Since bFGF gives a measurement of about 120 in this test, 120 is used as the threshold to determine whether a given compound has the ability to promote axonal outgrowth

[1] = tested on: mixture of human vascular endothelial cells and fibroblasts; test: Test Example 2: ability to promote angiogenesis (angiogenesis test kit KZ-1000); assay type: cell-based; settings: Homo sapiens, 216 h, lumen length, % of control, day 9, read-out: Promotion of angiogenesis (%); for activity at 0.3 µM: Compound Conc. = 0.3 μM
Procedure: Using an angiogenesis test kit containing a mixture of human vascular endothelial cells and fibroblasts [KZ-1000; Kurabo], the ability of test compounds to promote angiogenesis was evaluated. Each test compound was added on days 1, 4, and 7 of the incubation period. On day 9, cells were immunostained with CD31 and photographed. Control cells were cultured under the same conditions, only without the addition of a test compound, and photographed.
The lumen length of the blood vessel was quantified from the obtained images using an angiogenesis-quantification software. The ability (%) of each test compound to promote angiogenesis was calculated from the following equation: The ability to promote angiogenesis (%)=[(measurement with a compound of interest)/(measurement of control)]×100
Example Compounds shown in Table 26 were used as test compounds.
Since bFGF gives a measurement of about 120 in this test, 120 is used as the threshold to determine whether a given compound has the ability to promote angiogenesis.

[2] = tested on: microsphere (micro-embolism) model; test: Test Example 6: rat microsphere (micro-embolism) model; assay type: in vivo, Crl:CD(SD) rats; settings: rats, oral 1.0 mg/kg once daily for 10 days (Compound 65 also 0.1 mg/kg); 2 weeks after surgery
From the text: According to the method of Ichiro Date et al. [Journal of Neuroscience Research 78; 442-453 (2004)], 8-week-old male Crl:CD(SD) rats were used. Animals were anesthetized with halothane and midline incision was made. Right carotid artery was separated and a thread was looped around the common carotid artery and external carotid artery. The pterygopalatine artery was temporarily clipped with an aneurysm clip. The blood flow through the common carotid artery and external carotid artery was temporarily interrupted and 0.1 mL of a microsphere suspension composed of microspheres dispersed in a 30% sucrose solution (1800 microspheres/0.1 mL) was injected into the common carotid artery. After injection of the suspension, the puncture of the injection needle was filled with instant glue while the blood flow was interrupted. The blood flow was then restored and the surgical wound was sutured. Neurological symptoms were observed the day following the surgery. The animals were assigned to each treated group at random with respect to the measurements of neurological symptoms, the decrease in body weight from the previous day, and the body weight on that day.
The test compounds used were Example Compound 65, 108, 130, 135 and 137, each of which was administered at a dose of 1.0 mg/kg. Example Compound 65 was administered also at a dose of 0.1 mg/kg. Each compound was orally administered once daily for 10 days starting from the following day of the surgery. Coordinated motor functions were measured 5 times on an accelerated rota-rod (4 to 40 rpm/5 min) 2 weeks after the surgery.
Specifically, FIGS. 11 to 15 show the effect of different compounds 2 weeks after the microsphere injection (rota-rod test standard parameter). The figures show the results of rota-rod tests 2 weeks after the ischemic event in which each compound was orally administered at 1.0 mg/kg once daily for 10 days (Example Compound 65 was administered at 0.1 mg/kg or 1.0 mg/kg). What is shown in the figures is the total time of the 5 measurements on rota-rod as a standard parameter.
***: p<0.0001, Dunnett's multiple range test vs. Vehicle.

[3] = tested on: critical limb ischemia model (left femoral artery excised); test: Test Example 4: lower limb ischemia (critical limb ischemia) model in mice; assay type: in vivo, Balb/c mice; settings: oral once daily 0.1 or 1.0 mg/kg for 10 days from femoral artery excision, vs Vehicle
Procedure: According to the method of Ichiro Masaki [Circ Res. 90; 966-973 (2002)], the left femoral artery of Balb/c mice was excised to establish a model of critical limb ischemia (n=29 to 30).
Test compounds used were Example Compounds 65, 92, 114, 130, 135 and 136, each of which was orally administered once daily at a dose of 0.1 mg/kg or 1.0 mg/kg for 10 days starting from the day of femoral artery excision.
The results are shown in FIGS. 1 to 6 in which FIGS. 1, 2, 3, 4, 5 and 6 show the results of Example Compounds 65, 92, 114, 130, 135 and 136, respectively.
In the figures, a thick solid line indicates a Vehicle group, a thin dotted line indicates a group administered 0.1 mg/kg/day of each compound, and a thin solid line indicates a group administered 1.0 mg/kg/day of each compound.
*: P<0.05, **: P<0.01, ***: P<0.001 vs Vehicle by Wilcoxon's test.

chemokine receptor CCR3 = biological target: T1, chemokine receptor CCR3 (Homo sapiens, UniProt P51677); test: Affinity to chemokine receptor CCR3; assay type: binding; settings: at a concentration of 10 μM
T1 sequence (P51677 1-355): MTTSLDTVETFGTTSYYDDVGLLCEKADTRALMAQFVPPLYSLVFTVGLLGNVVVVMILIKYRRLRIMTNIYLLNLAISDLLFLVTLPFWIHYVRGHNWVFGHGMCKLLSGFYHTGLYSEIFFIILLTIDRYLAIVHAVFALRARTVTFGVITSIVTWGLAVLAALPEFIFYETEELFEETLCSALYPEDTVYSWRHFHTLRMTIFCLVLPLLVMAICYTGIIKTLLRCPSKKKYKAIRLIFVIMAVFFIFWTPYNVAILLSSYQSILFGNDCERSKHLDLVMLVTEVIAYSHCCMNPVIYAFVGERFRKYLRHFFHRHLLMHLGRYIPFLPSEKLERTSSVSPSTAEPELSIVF
From the text: Although the compounds of the present invention are novel compounds, compounds having a partly similar skeleton are described, for example, in Published Japanese Translation of PCT International Application No. 2003-507456, WO 01/79170 and WO 00/23076.

spinal cord neurons = test: Test Example 3: ability to promote the neurite outgrowth of spinal cord neurons; assay type: cell-based, Wistar rats; settings: Compound Conc. = 0.1 μM; % of control, day 3
Procedure: According to the method of Martin G. Hanson Jr. [J. Neurosci., 1998 Sep. 15; 18(18): 7361-71], the spinal cord region was isolated from 15-day embryos of female Wistar rats and the cells were dispersed using the papain dissociation system. Neurons were collected using 6.8% Metrizamide density gradient and were suspended in 2% FBS+Leibovitz's −15 medium so that the density of the cells will be 2×10^3 cells/well/200 μL. 200 μL of the cell suspension was inoculated on a poly-D-lysine/laminin-coated 96 well plate and the plate was incubated in an incubator at 37° C. Test compounds were added 1 hour after seeding of cells.
On day 3 of the incubation period, neurons were stained with Calcein-AM and the lengths of neurites were determined using IN Cell Analyzer (GE Healthcare Bioscience).
The ability (%) of each test compound to promote neurite outgrowth was calculated from the following equation: The ability to promote neurite outgrowth (%)=[(measurement with a compound of interest)/(measurement of control)]×100
Example Compounds 65, 71, 74, 92, 130 and 135 were used as test compounds and were each added at a concentration of 0.1 μM.
The results are shown in Table 27. bFGF gives a measurement of about 130 in this test.

Compound | activity at 3 µM (hippocampal neurons) [%] | activity at 0.3 µM [1] [%] | coordinated motor functions, total time of 5 measurements on rota-rod [2] | survival rate of lower limb [3] | affinity to chemokine receptor CCR3 (chemokine receptor CCR3) [%] | Promotion of spinal cord neurite outgrowth (%) (spinal cord neurons) | activity at 3 µM ([1]; Compound Conc. = 3 μM) [%]
Cc1cnc(N)nc1NCC(=O)N(C)C1CCN(CC2CC2)CC1 [Compound 108, 2-(2-amino-5-methylpyrimidine-4-ylamino)-N-(1-(cyclopropylmethyl)piperidine-4-yl)-N-methylacetamide] | 122 | 114 | highly effective in ameliorating ischemic cerebral infarction |  |  |  | 
CNc1nccnc1OCC(=O)N(C)C1CCN(Cc2ccccc2)CC1.Cl [Compound 130, N-(1-benzylpiperidine-4-yl)-N-methyl-2-(3-(methylamino)pyrazine-2-yloxy)acetamide hydrochloride] | 143 | 118 | highly effective in ameliorating ischemic cerebral infarction | increased survival rate | 3.5 | 128 | 
CN(C(=O)COc1ccc(Cl)nn1)C1CCN(C(=O)C2CC2)CC1 [Compound 135, 2-(6-chloropyridazine-3-yloxy)-N-(1-(cyclopropanecarbonyl)piperidine-4-yl)-N-methylacetamide] | 131 |  | highly effective in ameliorating ischemic cerebral infarction | increased survival rate | 22 | 121 | 140
CN(C(=O)COc1ccc(Cl)nn1)C1CCN(Cc2ccccc2)CC1 [Compound 137, N-(1-benzylpiperidine-4-yl)-2-(6-chloropyridazine-3-yloxy)-N-methylacetamide] |  |  | highly effective in ameliorating ischemic cerebral infarction |  |  |  | 
